Here are results for 7 compounds from article PMC10005332, “It Takes Two to Tango, Part II: Synthesis of A-Ring Functionalised Quinones Containing Two Redox-Active Centres with Antitumour Activities” (Molecules, 2023).

Like-named read-outs stand apart in the source and are kept apart here.

Data set [1] relates to HL60 (human pro-myelocytic leukaemia). As to the kind of experiment: MTT cytotoxicity assay, HL60. Format: cell-based. Conditions: for IC50: Homo sapiens, HL-60, 72 h, MTT, 72 h exposure, three independent experiments, read-out: Cytotoxic activity IC50 (95% CI) HL60; for Selectivity index HL60: ratio of cytotoxicity L929 / HL60. The procedure:
(§1) In this study, the IC50 was obtained in micromolar concentrations, using the colourimetric MTT (3-(4,5-dimethylthiazol-2-yl)-2,5-diphenyl tetrazolium bromide)) assay, and doxorubicin was used as the positive control. […] The activity against the non-tumoural murine fibroblast cell line L929 was also evaluated in order to study the cytotoxicity behaviour of each compound and to understand their respective relative selectivity. The selectivity index was obtained using the ratio of measured cytotoxicity between the L929 cell line and each of the cancer cell lines, and the results are presented in Table 2.
(§2) The in vitro cytotoxicity activity of the compounds was evaluated by the colorimetric MTT (3-(4,5-dimethylthiazol-2-yl)-2,5-diphenyl tetrazolium bromide)) assay using the following tumor cell lines: HCT-116 (colon carcinoma), PC3 (prostate), SNB-19 (glioblastoma), K-562 (myelogenous leukaemia), HL-60 (human promyelocytic leukaemia), B16 (murine melanoma), A549 (human lung carcinoma), KG1 (human acute myeloid leukaemia), and RAJI (human Burkitt’s lymphoma), which were provided by the National Cancer Institute (Bethesda, MD, USA). The L929 cell line (mouse fibroblast L cells NCTC clone 929) employed in this study as a control cell line was obtained from the American Type Culture Collection (Manassas, VA, USA). The cell lines (Table S4) were maintained in flasks containing RPMI 1640 or DMEM medium supplemented with 10% bovive fetal sérum, 100 U/mL penicillin, and 100 μg/mL streptomycin at 37 °C and in 5% CO2 atmosphere. The compounds tested were dissolved in DMSO. Doxorubicin served as the positive control. Cell treatments were performed with three replicates and the cells were mycoplasma free. After 72 h incubation, 100 μL of MTT solution (0.5 mg/mL) was added to each well, and the cells were incubated for 3 h. The supernatant was removed and 100 μL of DMSO was added and the absorbance at 595 nm was measured using Victor Nivo Multimode plate reader (PerkinElmer, Waltham, MA, USA). The absorbances obtained were used to calculate the IC50 values by nonlinear regression employing appropriate statistical software.
(§3) The in vitro cytotoxicity activity of compounds was evaluated by the colorimetric MTT (3-(4,5-dimethylthiazol-2-yl)-2,5-diphenyl tetrazolium bromide)) assay using tumor cell lines: HCT-116 (colon carcinoma), PC3 (prostate), SNB-19 (glioblastoma), K-562 (myelogenous leukaemia), HL-60 (human promyelocytic leukaemia), B16 (murine melanoma), A549 (human lung carcinoma), KG1 (human acute myeloid leukaemia) and RAJI (human Burkitt's lymphoma), which were provided by the National Cancer Institute (Bethesda, MD, USA). The L929 cell line (mouse fibroblast L cells NCTC clone 929) employed in this study as a control cell line was obtained from the American Type Culture […]
(§4) Collection (Manassas, VA, USA). Cell lines (Table 01) were maintained in flasks containing RPMI 1640 or DMEM medium supplemented with 10% bovive fetal sérum, 100 U/mL penicillin, and 100 μg/mL streptomycin at 37 °C and 5% CO2 atmosphere.
(§5) Compounds tested were dissolved in DMSO. Doxorubicin served as positive control. Cell treatments were performed with three replicates and cells were mycoplasma-free. After 72 h incubation, 100 μL of MTT solution (0.5 mg/mL) was added to each well, and cells were incubated for 3 h. The supernatant was removed and 100 μL of DMSO was added and the absorbance at 595 nm was measured using Victor Nivo Multimode plate reader

The subject of the next data set is B16 (murine melanoma). Description: MTT cytotoxicity assay, B16. The format is cell-based. Conditions: for IC50: Mus musculus, MTT, 72 h exposure, three independent experiments, read-out: Cytotoxic activity IC50 (95% CI) B16; for Selectivity index B16: ratio of cytotoxicity L929 / B16. The method, then: as §1, §2, §3, §4, §5
Data set [2] in a line: MTT cytotoxicity assay, L929 control line. The format is cell-based, mouse. Conditions: mouse, L929 fibroblast cells (non-tumoral control line), 72 h exposure, read-out: Cytotoxic activity IC50 (95% CI) L929. The method, then:
as §1, §2, §3, §4, §5

Data set [3] relates to PC3 (human prostate adenocarcinoma). Description: MTT cytotoxicity assay, PC3. Format: cell-based. As to conditions: for IC50: Homo sapiens; for Selectivity index PC3: ratio of cytotoxicity L929 / PC3. The method, then:
as §1, §2, §3, §4, §5

The test system of data set [4] is K-562 (human chronic myeloid leukaemia). As to the kind of experiment: MTT cytotoxicity assay, K-562. Format: cell-based. As to conditions: for IC50: Homo sapiens, K562, MTT, 72 h exposure, three independent experiments, read-out: Cytotoxic activity IC50 (95% CI) K-562; for Selectivity index K-562: ratio of cytotoxicity L929 / K-562. The procedure: as §1, §2, §3, §4, §5

Data set [5] has as its system RAJI (human Burkitt’s lymphoma). Description: MTT cytotoxicity assay, RAJI. The format is cell-based. Conditions: for IC50: Homo sapiens, Raji, 72 h, MTT, 72 h exposure, three independent experiments, read-out: Cytotoxic activity IC50 (95% CI) RAJI; for Selectivity index RAJI: ratio of cytotoxicity L929 / RAJI. The method, then:
as §1, §2, §3, §4, §5

For data set [6], the system named is SNB-19 (human astrocytoma). Description: MTT cytotoxicity assay, SNB-19. Format: cell-based. As to conditions: for IC50: Homo sapiens, SNB-19, MTT, 72 h exposure, three independent experiments, read-out: Cytotoxic activity IC50 (95% CI) SNB-19; for Selectivity index SNB-19: ratio of cytotoxicity L929 / SNB-19. The procedure: as §1, §2, §3, §4, §5
Data set [7] concerns A549 (human lung carcinoma). As to the kind of experiment: MTT cytotoxicity assay, A549. Format: cell-based. As to conditions: for IC50: Homo sapiens, A549, MTT, 72 h exposure, three independent experiments, read-out: Cytotoxic activity IC50 (95% CI) A549; for Selectivity index A549: ratio of cytotoxicity L929 / A549. The procedure: as §1, §2, §3, §4, §5
For data set [8], the system named is KG1 (human acute myeloid leukaemia). As to the kind of experiment: MTT cytotoxicity assay, KG1. Format: cell-based. Conditions: for IC50: Homo sapiens, MTT, 72 h exposure, three independent experiments, read-out: Cytotoxic activity IC50 (95% CI) KG1; for Selectivity index KG1: ratio of cytotoxicity L929 / KG1. The procedure:
as §1, §2, §3, §4, §5

The test system of data set [9] is HCT-116 (human colorectal carcinoma). As to the kind of experiment: MTT cytotoxicity assay, HCT-116. Format: cell-based. Conditions: for IC50: Homo sapiens, HCT-116, 72 h, MTT, 72 h exposure, three independent experiments, read-out: Cytotoxic activity IC50 (95% CI) HCT-116; for Selectivity index HCT-116: ratio of cytotoxicity L929 / HCT-116. The method, then: as §1, §2, §3, §4, §5

Where [10] appears, read: MTT, 72 h exposure, three independent experiments, read-out: Cytotoxic activity IC50 (95% CI) PC3.

Take `CC1(C)OC2=C(C(=O)C(=O)c3ccccc32)C1N=[N+]=[N-]` (centres unmarked) [Compound 4, 3-azido-2,2-dimethyl-2,3-dihydronaphtho[1,2-b]furan-4,5-dione]: in data set [1], the IC50 worked out at 1.08 µM and the “Selectivity index HL60” value was determined as 2.5. In the data set with B16 (murine melanoma), the IC50 is 1.77 µM and the “Selectivity index B16” value is recorded as 1.5. Besides, the IC50 at 72 h in data set [2] was found to be 2.74 µM. In addition, the IC50 in data set [3] (setting [10]) worked out at 5.93 µM. The “Selectivity index PC3” value in [3] is 0.5. In addition, in [4], the IC50 amounted to 1.42 µM and the “Selectivity index K-562” value is on record as 1.9. Also, in [5], the IC50 was 2.46 µM and the “Selectivity index RAJI” value is reported as 1.1. For the same compound, in data set [6], the IC50 is 2.09 µM and the “Selectivity index SNB-19” value stood at 1.3. Besides, in data set [7], the concentration for half-maximal inhibition (IC50) is 3.65 µM and the “Selectivity index A549” value was found to be 0.8. Moreover, in data set [8], the IC50 is 5.98 µM and the “Selectivity index KG1” value was 0.5. Also, in data set [9], the IC50 was 1.96 µM and the “Selectivity index HCT-116” value is given as 1.4.

`[N-]=[N+]=NCC1CC2=C(O1)c1ccccc1C(=O)C2=O` (centres unmarked) [Compound 7, 2-(azidomethyl)-2,3-dihydronaphtho[1,2-b]furan-4,5-dione]: the IC50 in data set [1] is 0.59 µM; in the data set with B16 (murine melanoma), 1.99 µM; in data set [3] (72 h, read-out: Bioactivity class according to IC50, PC3), 2 to 10 µM; in data set [3] (setting [10]) it was 2.25 µM; in data set [4], 0.98 µM; in [5], 0.53 µM. In addition, the IC50 in data set [6] was found to be 1.43 µM; in data set [7] it was 2.63 µM; in data set [8], 3.67 µM; in [9], 1.8 µM. The “Selectivity index HL60” value in [1] was determined as 5.9. The “Selectivity index B16” value with B16 (murine melanoma) stood at 1.7. In addition, the IC50 at 72 h in data set [2] was found to be 3.46 µM. Moreover, the “Selectivity index PC3” value in data set [3] is on record as 1.5. Moreover, in [4], the “Selectivity index K-562” value is given as 3.5. The “Selectivity index RAJI” value in [5] came out at 6.5. In addition, in data set [6], the “Selectivity index SNB-19” value was 2.4. Besides, the “Selectivity index A549” value in data set [7] came out at 1.3. Besides, the “Selectivity index KG1” value in data set [8] was 0.9. Besides, the “Selectivity index HCT-116” value in data set [9] is listed as 1.9.

For `C#CCNC1=CC(=O)c2c(I)cccc2C1=O` [Compound 18a, 5-iodo-2-(prop-2-yn-1-ylamino)naphthalene-1,4-dione], the concentration for half-maximal inhibition (IC50) is 38.3 µM in data set [1]; 48.5 µM in the data set on B16 (murine melanoma); > 100 µM in data set [3] (setting [10]); > 100 µM in data set [4]; > 100 µM in data set [5]; > 100 µM in [6]. For the same compound, the IC50 in data set [7], in [8] and in data set [9] was > 100 µM in each case. The “Selectivity index HL60” value in data set [1] is 2.6. Moreover, in the data set with B16 (murine melanoma), the “Selectivity index B16” value is 2.1. Moreover, the IC50 at 72 h in [2] was > 100 µM.

For the compound `C#CCNC1=CC(=O)c2cccc(OC)c2C1=O` [Compound 18c, 8-methoxy-2-(prop-2-yn-1-ylamino)naphthalene-1,4-dione], the IC50 in data set [1] was > 100 µM; in the data set on B16 (murine melanoma) it was 43.8 µM; in [3] (setting [10]) it was > 100 µM; in data set [4], > 100 µM; in [5], 39.3 µM; in data set [6], > 100 µM. For the same compound, the IC50 in data set [7], in data set [8] and in [9] was > 100 µM in each case. Also, in the data set on B16 (murine melanoma), the “Selectivity index B16” value worked out at 2.3. Further, the IC50 at 72 h in [2] is > 100 µM. The “Selectivity index RAJI” value in [5] is on record as 2.5.

With `C#CCNC1=CC(=O)c2cccc(OCc3ccccc3)c2C1=O` [Compound 18d, 8-benzyloxy-2-(prop-2-yn-1-ylamino)naphthalene-1,4-dione], the IC50 was 32 µM in data set [1]; 35.5 µM with B16 (murine melanoma); > 100 µM in [3] (setting [10]); > 100 µM in data set [4]; > 100 µM in data set [5]; > 100 µM in data set [6]. The IC50 in [7], in [8] and in [9] was > 100 µM each time. Moreover, in [1], the “Selectivity index HL60” value is listed as 3.1. The “Selectivity index B16” value in the data set with B16 (murine melanoma) amounted to 2.8. The IC50 at 72 h in data set [2] is > 100 µM.

As to `C#CCNC1=CC(=O)c2cc3ccccc3cc2C1=O` [Compound 18e, 2-(prop-2-yn-1-ylamino)anthracene-1,4-dione], the IC50 (in data set [1]; with B16 (murine melanoma); in [3] (setting [10]); in [4]; in data set [5]; in data set [6]) was > 100 µM each time. Moreover, the IC50 in data set [7], in data set [8] and in data set [9] was > 100 µM each time. Also, in data set [2], the IC50 at 72 h was > 100 µM.

Regarding `CC1(C)OC2=C(C(=O)C(=O)c3ccccc32)C1n1cc(CNC2=CC(=O)c3c(I)cccc3C2=O)nn1` (centres unmarked) [Compound 19a, 3-(4-(((5-iodo-1,4-dioxo-1,4-dihydronaphthalen-2-yl)amino)methyl)-1H-1,2,3-triazol-1-yl)-2,2-dimethyl-2,3-dihydronaphtho[1,2-b]furan-4,5-dione], in data set [1], the IC50 came to 0.44 µM and the “Selectivity index HL60” value stood at 2.8. In the data set with B16 (murine melanoma), the half-maximal inhibitory concentration (IC50) stood at 1.87 µM and the “Selectivity index B16” value came out at 0.6. For the same compound, the IC50 at 72 h in data set [2] came out at 1.21 µM. The IC50 in data set [3] (setting [10]) was 3.65 µM. Further, the “Selectivity index PC3” value in [3] was found to be 0.3. For the same compound, in [4], the IC50 turned out to be 1.21 µM and the “Selectivity index K-562” value stood at 1.0. In [5], the IC50 worked out at 2.02 µM and the “Selectivity index RAJI” value was 0.6. Besides, in data set [6], the IC50 stood at 0.99 µM and the “Selectivity index SNB-19” value is listed as 1.2. In data set [7], the IC50 turned out to be 2.56 µM and the “Selectivity index A549” value is 0.5. In [8], the IC50 came to 1.37 µM and the “Selectivity index KG1” value came out at 0.9. Further, in data set [9], the IC50 worked out at 1 µM and the “Selectivity index HCT-116” value is 1.2.
